For two compounds, IC50 results are on record in patent US20240246992A1, “MACROCYCLIC LRRK2 KINASE INHIBITORS” (LES LABORATOIRES SERVIER, priority 2021, published 2024).

The structures appear in SMILES notation.

The experiment deals with human recombinant LRRK2 protein (Homo sapiens, UniProt Q5S007). Kind of experiment: LRRK2 kinase activity assay (ADP-Glo, LRRKtide peptide). Format: biochemical. Conditions: human recombinant LRRK2 wt, LRRKtide peptide and ATP, 1 h at 37° C. In a few lines: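 Human recombinant LRRK2 reacted with LRRKtide peptide and ATP for 1 h at 37 °C in the presence of compound. ADP formed measured by ADP-Glo luminescence; IC50 fitted from 10 concentrations run in duplicate.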
On the technique in general: ADP-Glo first removes unused ATP, then detects ADP through luciferase.

human recombinant LRRK2 protein, sequence (Q5S007 whole entry): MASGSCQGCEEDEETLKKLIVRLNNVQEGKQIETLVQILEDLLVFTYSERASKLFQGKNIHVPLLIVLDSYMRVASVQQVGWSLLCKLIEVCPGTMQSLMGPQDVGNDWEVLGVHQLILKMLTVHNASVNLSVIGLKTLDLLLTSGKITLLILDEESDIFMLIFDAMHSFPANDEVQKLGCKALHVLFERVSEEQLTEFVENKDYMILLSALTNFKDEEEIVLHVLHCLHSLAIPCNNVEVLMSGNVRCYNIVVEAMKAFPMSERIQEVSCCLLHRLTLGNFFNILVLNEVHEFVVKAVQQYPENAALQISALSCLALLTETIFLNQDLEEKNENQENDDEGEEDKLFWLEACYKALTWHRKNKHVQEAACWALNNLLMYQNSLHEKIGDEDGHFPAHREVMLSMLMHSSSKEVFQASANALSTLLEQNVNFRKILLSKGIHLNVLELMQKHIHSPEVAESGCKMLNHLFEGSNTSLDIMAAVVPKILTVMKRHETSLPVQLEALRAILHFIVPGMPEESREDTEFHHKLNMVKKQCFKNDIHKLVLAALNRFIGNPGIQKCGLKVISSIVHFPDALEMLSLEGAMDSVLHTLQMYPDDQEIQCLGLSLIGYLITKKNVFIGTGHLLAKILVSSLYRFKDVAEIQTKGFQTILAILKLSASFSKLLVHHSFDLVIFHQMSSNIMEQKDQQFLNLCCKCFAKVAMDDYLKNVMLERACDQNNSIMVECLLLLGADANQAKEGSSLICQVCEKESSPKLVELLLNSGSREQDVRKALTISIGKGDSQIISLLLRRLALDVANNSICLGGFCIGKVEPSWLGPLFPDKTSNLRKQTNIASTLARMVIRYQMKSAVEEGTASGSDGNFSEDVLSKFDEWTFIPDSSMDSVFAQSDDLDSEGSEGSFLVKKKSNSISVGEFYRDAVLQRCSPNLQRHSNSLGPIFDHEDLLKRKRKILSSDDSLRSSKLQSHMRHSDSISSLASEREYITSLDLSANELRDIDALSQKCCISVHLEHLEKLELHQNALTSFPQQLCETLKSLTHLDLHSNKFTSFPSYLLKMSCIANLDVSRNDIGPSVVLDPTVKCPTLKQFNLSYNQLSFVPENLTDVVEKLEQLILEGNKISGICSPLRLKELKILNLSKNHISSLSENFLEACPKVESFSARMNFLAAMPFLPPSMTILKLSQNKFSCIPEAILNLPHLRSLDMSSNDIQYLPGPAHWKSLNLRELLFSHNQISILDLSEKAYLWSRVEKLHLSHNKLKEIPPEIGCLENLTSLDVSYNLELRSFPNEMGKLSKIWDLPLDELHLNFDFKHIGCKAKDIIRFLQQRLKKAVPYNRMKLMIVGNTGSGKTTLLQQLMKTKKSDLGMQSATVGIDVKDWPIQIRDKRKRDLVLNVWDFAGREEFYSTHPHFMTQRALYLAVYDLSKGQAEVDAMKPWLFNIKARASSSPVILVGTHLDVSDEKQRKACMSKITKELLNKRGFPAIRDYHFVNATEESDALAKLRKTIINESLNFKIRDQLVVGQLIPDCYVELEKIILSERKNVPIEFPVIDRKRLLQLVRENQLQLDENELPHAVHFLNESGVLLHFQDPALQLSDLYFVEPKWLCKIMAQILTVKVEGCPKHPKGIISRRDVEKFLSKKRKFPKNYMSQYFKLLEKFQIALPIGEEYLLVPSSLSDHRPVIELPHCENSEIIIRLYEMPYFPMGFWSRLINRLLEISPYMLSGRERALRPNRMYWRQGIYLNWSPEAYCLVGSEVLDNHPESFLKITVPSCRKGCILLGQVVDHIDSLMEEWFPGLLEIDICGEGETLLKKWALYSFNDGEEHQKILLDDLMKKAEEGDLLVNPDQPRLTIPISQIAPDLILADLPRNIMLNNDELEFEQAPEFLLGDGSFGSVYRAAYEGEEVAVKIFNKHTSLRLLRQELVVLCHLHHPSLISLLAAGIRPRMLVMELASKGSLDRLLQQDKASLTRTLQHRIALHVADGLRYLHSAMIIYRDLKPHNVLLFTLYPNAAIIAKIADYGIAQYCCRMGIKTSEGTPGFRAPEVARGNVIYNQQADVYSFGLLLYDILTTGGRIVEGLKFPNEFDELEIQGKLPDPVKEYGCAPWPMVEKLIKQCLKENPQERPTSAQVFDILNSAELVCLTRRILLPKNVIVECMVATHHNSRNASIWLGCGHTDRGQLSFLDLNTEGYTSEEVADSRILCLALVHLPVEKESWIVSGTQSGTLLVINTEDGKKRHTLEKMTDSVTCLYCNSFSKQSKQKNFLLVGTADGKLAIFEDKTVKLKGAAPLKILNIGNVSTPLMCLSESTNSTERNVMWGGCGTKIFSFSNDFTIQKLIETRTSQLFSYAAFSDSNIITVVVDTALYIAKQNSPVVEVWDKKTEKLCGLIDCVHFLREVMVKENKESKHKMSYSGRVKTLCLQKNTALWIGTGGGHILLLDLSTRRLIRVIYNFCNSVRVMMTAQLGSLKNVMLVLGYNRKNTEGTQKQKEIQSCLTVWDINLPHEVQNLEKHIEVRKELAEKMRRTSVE

As usually defined, the IC50 is the concentration that inhibits the measured activity by half. With `C[C@@H]1CCOCCCn2ncc(n2)-c2n[nH]c3ccc(cc23)O1` [Example 90, (12R)-12-methyl-9,13-dioxa-4,5,18,19,22-pentaazatetracyclo[12.5.2.1^2,5.0^17,20]docosa-1(19),2(22),3,14(21),15,17(20)-hexaene], the IC50 is less than 10 nM.

Consider `c1cc2[nH]nc3c2cc1OCCCNCCOc1cncc-3c1` [Example 137, 7,14-dioxa-4,10,19,20-tetraazatetracyclo[13.5.2.1^2,6.0^18,21]tricosa-1(20),2,4,6(23),15,17,21-heptaene], for which the 50% inhibitory concentration (IC50) is less than 10 nM.
